Patent US20190314196A1, “Topical Ocular Delivery Methods and Devices for Use in the Same” (Kedalion Therapeutics, Inc., priority 2018, published 2019)

What was measured:
Type in all cases: in vivo, human
eye of subjects [1] = assay: Presbyopia: near visual acuity, Snellen card at 40 cm; settings: 45 to 60 minutes after dosing
Experimental: (§1) A 10 μl micro-dose of a 1% pilocarpine solution was self-administered using an electromagnetic actuated fluid delivery device, e.g., as described above, by three subjects to their own eye. The age range of the subjects was 52 years to 68 years, and all subjects were male. The pilocarpine micro-dose was self-administered by the subjects.
(§2) Baseline, pre-dose values of pupil diameter and near visual acuity in both eyes prior to dosing was measured for all subjects, and then following the baseline measurements, the subjects were dosed in only one eye (the eye with the poorer visual acuity) with the micro-dose pilocarpine solution. Approximately 45 to 60 minutes after dosing, pupil diameter and near visual acuity were again tested. Near visual acuity was measured using a Snellen card at a distance of 40 cm. A tabulation of results is given below in Table A.

eye of subjects [2] = assay: Presbyopia: pupil diameter after self-administered pilocarpine micro-dose
Experimental: as §1, §2

[3] = test system: patients diagnosed with primary open angle glaucoma; assay: Trial 2: intraocular pressure reduction, Goldmann applanation tonometry; settings: for Post-treatment IOP, Mean: 0.005% w/v, N=18 eyes; for Post-treatment IOP, Mean / average decrease in IOP measured per patient / Post-treatment IOP, Median: approx. 8 hours after dosing; for Post-treatment IOP, Median: baseline median 18.0; for Total pressure reduction, Mean / Total pressure reduction, Median: signed change from baseline
Experimental: Trial 2 compared the efficacy (dose volume equivalence) of 0.005% w/v latanoprost for intraocular pressure reduction when delivered via AcuStream™ (pre-trial calibration volume=9.2 μl) versus the standard eye dropper for topical drug delivery (approximate volume=30 μl).
Patients included in Trial 2 have previously been diagnosed with primary open angle glaucoma on the basis of intraocular pressure and visual field testing, fundus examination or optical coherence tomography (OCT) data and are currently on prostaglandin analog medical therapy. Patients with corneal abnormalities that would interfere with accurate IOP measurements with applanation tonometry, use of an oral or topical ophthalmic steroids within the past 14 days from screening date, any active ocular surface or anterior segment disease, or progressive field loss during the past year were excluded from the study. Thirteen men and five women participated in the trial.
Recruited patients were taken off medical therapy for a period of 3-4 weeks prior to the study to allow drug “wash out”, thereby elevating their IOPs to pre-treatment levels which was confirmed by examination of the patients' chart history. Patients were randomly assigned as “test” (AcuStream™), or “control” (standard eye dropper). The mean age of the control group and test group were 61.0 years and 65.2 years, respectively.
The patients assigned to either the “test” or “control” group by means of a random numbers table in order to mitigate any potential cross-over effects that could confound data interpretation. An odd number dictated that the patient was in the test group, while even-numbered patients were in the control group.
After performing slit lamp examinations on each patient to verify eligibility and obtaining informed consent, intraocular pressure (IOP) was measured by a sole experienced examiner who was blind to the randomized conditions. A pre-calibrated Goldmann applanation tonometer coupled to a Haag-Streit 900 EQ slit lamp was used to conduct baseline IOP measurements. Once baseline IOP data were verified to be equivalent to pre-medical therapy levels (based on patient's treatment history), the patient then continued to the dosing stage of the study.
Latanoprost solution was administered by a sole ophthalmologist to both eyes of each patient, based on the pre-determined randomized condition.

[4] = standard eye dropper control group

CC[C@@H]1C(=O)OC[C@@H]1Cc1cncn1C [pilocarpine]
Median dosed eye near visual acuity (eye of subjects [1]; baseline median 20/30): 20/20 | # of lines change in visual acuity (mean improvement) (eye of subjects [1]; dosed eye, 3 subjects): 2 lines | Mean change in dosed pupil dia (eye of subjects [2]; dosed eye, 10 μl micro-dose of 1% solution, 45 to 60 minutes after dosing, 3 subjects): −0.7 mm | Mean post-dose pupil dia (eye of subjects [2]; dosed eye, 10 μl micro-dose of 1% solution, 45 to 60 minutes after dosing, 3 subjects, baseline mean 2.9 mm): 2.2 mm | mean reduction in pupil diameter (eye of subjects [2]; dosed eye, 10 μl micro-dose of 1% solution, all subjects): 0.70 mm | miotic effect in non-dosed eye (eye of subjects [2]; non-dosed contralateral eye): no miotic effect | Mean change in non-dosed pupil dia (eye of subjects [2]; non-dosed contralateral eye, 45 to 60 minutes after dosing): 0.2 mm | Mean non-dose pupil dia (eye of subjects [2]; non-dosed contralateral eye, 45 to 60 minutes after dosing, baseline mean 2.8 mm): 3.0 mm

CC(C)OC(=O)CCC/C=C\C[C@@H]1[C@@H](CC[C@@H](O)CCc2ccccc2)[C@H](O)C[C@@H]1O [latanoprost]
difference in IOP reduction between groups ([3]; AcuStream 9.2 μl versus standard eye dropper 30 μl): no statistically significant differences | Post-treatment IOP, Mean ([3]; AcuStream test group, 9.2 μl, baseline 18.6): 13.6 mm Hg | average decrease in IOP measured per patient ([3]; AcuStream test group): 5.0 mm Hg | Post-treatment IOP, Median ([3]; AcuStream test group): 13.0 mm Hg | Total pressure reduction, Mean ([3]; AcuStream test group): −5.0 mm Hg | Total pressure reduction, Median ([3]; AcuStream test group): −5.0 mm Hg | post-instillation IOP (OD), single patient outlier ([3]; control group, baseline IOP 30 mm Hg): 17 mm Hg | equivalence of 9.2 μl AcuStream dose to 30 μl standard eye drop, intraocular pressure reduction ([3]; latanoprost 0.005% w/v): pharmacodynamic equivalence | Post-treatment IOP, Mean ([3]; standard eye dropper control group, approx. 30 μl, baseline 17.7): 13.3 mm Hg | average decrease in IOP measured per patient [3, 4]: 4.3 mm Hg | Post-treatment IOP, Median [3, 4]: 12.0 mm Hg | Total pressure reduction, Mean [3, 4]: −4.3 mm Hg | Total pressure reduction, Median [3, 4]: −4.0 mm Hg
